Test results reported in US11760754B2, “Heterocyclic mitochondrial activity inhibitors and uses thereof” (UNIVERSITÉ DE MONTRÉAL, priority 2017, dated 2023).

How the values were obtained:
OCI-AML3 cells = experiment: OCI-AML3 cell growth inhibition, dose-response viability assay (CellTiterGlo); format: cell-based; conditions: for EC50: Homo sapiens, OCI-AML-3, 144 h, read-out: AML-3 EC50
How it was run: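 OCI-AML3 cells seeded, then exposed to compound in serial dilutions from 10 μM to 0.5 nM, in duplicate or quadruplicate. Viability read by CellTiter-Glo.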

MLL-AF9 cells = experiment: MLL-AF9 leukemia cell growth inhibition, dose-response viability assay (CellTiterGlo); format: cell-based, murine; conditions: Mus musculus, MLL-AF9, 120 h, read-out: MLL-AF9 EC50
How it was run: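 Murine MLL-AF9 leukemia cells (female, MSCV MLL-AF9 IRES Puro transduced) were treated with serial compound dilutions from 10 μM to 0.5 nM in duplicates or quadruplicates. Viability read by CellTiterGlo dose-response.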

AML patient cells = experiment: Primary AML patient cell dose-response viability assay (chemical screen); conditions: 41 AML patient specimens, primary screen

| SMILES | EC50 (OCI-AML3 cells) | EC50 (MLL-AF9 cells) | OCI-AML3 cells sensitive to the compound (dose response) (OCI-AML3 cells; OCI-AML3 cells) | sensitivity of AML patient specimens (AML patient cells) |
| --- | --- | --- | --- | --- |
| Fc1cc(C(F)(F)F)ccc1/C=C/c1nc(COc2ccc(CCCCc3cccnn3)cc2)co1 [Compound 138, (E)-2-(2-fluoro-4-(trifluoromethyl)styryl)-4-((4-(4-(pyridazin-3-yl)butyl)phenoxy)methyl)oxazole] | < 50 nM | 50 to 100 nM | – | – |
| Fc1cc(C(F)(F)F)ccc1/C=C/c1nc(COc2ccc(CCCCc3ncccn3)cc2)co1 [Compound 139, (E)-2-(2-fluoro-4-(trifluoromethyl)styryl)-4-((4-(4-(pyrimidin-2-yl)butyl)phenoxy)methyl)oxazole] | > 10000 nM | 1000 to 10000 nM | – | – |
| Fc1cc(C(F)(F)F)ccc1/C=C/c1nc(COc2ccc(CCCCc3ccccn3)cc2)co1 [Compound 140, (E)-2-(2-fluoro-4-(trifluoromethyl)styryl)-4-((4-(4-(pyridin-2-yl)butyl)phenoxy)methyl)oxazole] | > 10000 nM | 1000 to 10000 nM | – | – |
| N#Cc1ccc(/C=C/c2nc(COc3ccc(SCCCn4ccnn4)cc3)co2)c(F)c1 [Compound 141, (E)-4-(2-(4-((4-((3-(1H-1,2,3-triazol-1-yl)propyl)thio)phenoxy)methyl)oxazol-2-yl)vinyl)-3-fluorobenzonitrile] | < 50 nM | 50 to 100 nM | – | – |
| Fc1ccc2cc(-c3nc(COc4ccc(CCCCn5ccnn5)cc4)co3)oc2c1 [Compound 142, 4-((4-(4-(1H-1,2,3-triazol-1-yl)butyl)phenoxy)methyl)-2-(6-fluorobenzofuran-2-yl)oxazole] | 500 to 1000 nM | 100 to 500 nM | – | – |
| CS(=O)(=O)CCNCc1ccc(-c2ccc3ncnc(Nc4ccc(OCc5cccc(F)c5)c(Cl)c4)c3c2)o1 [Lapatinib, Lapatinib ditosylate, reference compound] | – | – | not | resistant |

The next lines start with results.

| EC50 (OCI-AML3 cells) | EC50 (MLL-AF9 cells) | SMILES | OCI-AML3 cells sensitive to the compound (dose response) (OCI-AML3 cells; OCI-AML3 cells) | sensitivity of AML patient specimens (AML patient cells) |
| --- | --- | --- | --- | --- |
| 1000 to 10000 nM | 100 to 500 nM | Fc1ccc2cc(-c3nc(COc4ccc(CCCCn5ccnn5)cc4)co3)sc2c1 [Compound 143, 4-((4-(4-(1H-1,2,3-triazol-1-yl)butyl)phenoxy)methyl)-2-(6-fluorobenzo[b]thiophen-2-yl)oxazole] | – | – |
| < 50 nM | < 50 nM | Fc1cc(F)c2cc(-c3nc(COc4ccc(SCCCn5ccnn5)cc4)co3)[nH]c2c1 [Compound 144, 4-((4-((3-(1H-1,2,3-triazol-1-yl)propyl)thio)phenoxy)methyl)-2-(4,6-difluoro-1H-indol-2-yl)oxazole] | – | – |
| 500 to 1000 nM | 100 to 500 nM | Cc1oc(/C=C/c2ccc(C(F)(F)F)cc2F)nc1COc1ccc(CCCCn2ccnn2)cc1 [Compound 145, (E)-4-((4-(4-(1H-1,2,3-triazol-1-yl)butyl)phenoxy)methyl)-2-(2-fluoro-4-(trifluoromethyl)styryl)-5-methyloxazole] | – | – |
| 1000 to 10000 nM | 100 to 500 nM | Fc1cc(C(F)(F)F)ccc1/C=C/c1nc(CSc2ccc(CCCCn3ccnn3)cc2)co1 [Compound 146, (E)-4-(((4-(4-(1H-1,2,3-triazol-1-yl)butyl)phenyl)thio)methyl)-2-(2-fluoro-4-(trifluoromethyl)styryl)oxazole] | – | – |
| < 50 nM | < 50 nM | Fc1cc(C(F)(F)F)ccc1/C=C/c1nc(COc2ccc(SCCn3ccnn3)cc2)co1 [Compound 147, (E)-4-((4-((2-(1H-1,2,3-triazol-1-yl)ethyl)thio)phenoxy)methyl)-2-(2-fluoro-4-(trifluoromethyl)styryl)oxazole] | – | – |
